In US8691762B2, “Methods and assays for treating subjects with SHANK3 deletion, mutation or reduced expression” (Mount Sinai School of Medicine, priority 2010, dated 2014):
“Also recorded” adds a separate entry of the source.

Legend:
[1] = test system: Shank3 heterozygous mice; assay: Long-term potentiation at Schaffer collateral-CA1 synapses, hippocampal slices from treated Shank3 heterozygous mice; type: in vivo, mouse; settings: for LTP (normalized field EPSP slope), higher dose: rhIGF-1 i.p. 240 μg/kg/day for 2 weeks from P13-15
Description: FIG. 8. […] Ampakine CX1837 or HPCD vehicle is administered daily via i.p. injections (1.5 mg/kg body weight) starting at 2 weeks old and continued for 4 weeks for electrophysiological recordings.
(§1) FIG. 10A-10B. Recombinant human IGF-1 (rhIGF-1) reverses deficits in long-term potentiation and basal synaptic properties at Schaffer collateral-CA1 synapses in Shank3 heterozygous mice in a dose-dependent fashion. rhIGF-1 is administered daily via i.p. injections (120 or 240 μg/kg body weight) starting at P13-15 and continued for 2 weeks for electrophysiological recordings. A. LTP was induced with high-frequency stimulation and normalized field EPSP slope was plotted as a function of time. […] B. AMPA receptor responses were assessed in the mice. Slices were incubated in the presence of APV and mean field EPSP slope as a function of fiber volley is shown for slices derived from wildtype (WT), Shank3 heterozygous (Het) mice, and Het injected with rhIGF-1. Deficits in AMPA receptor signaling observed in Shank3 heterozygotes were reversed with 2-week rhIGF-1 treatment.

[2] = test system: AMPA receptor; assay: AMPA receptor component of I/O function (field EPSP slope vs fiber volley in presence of APV); type: in vivo, mouse; settings: Shank3 Het
Description: as §1
IGF-1 has been approved for clinical use as a recombinant full-length protein. Full-length IGF-1 enters the CNS through an interaction with lipoprotein-related receptor 1 (LRP1), after activity dependent cleavage of IGF binding protein-3 (IGFBP-3) by matrix metalloproteinase-9 (MMP9) (Nishijima et al., 2010). […]

[3] = test system: Akt; assay: Western blot for total- and phospho-Akt in hippocampus; type: in vivo, mouse
Excerpt: FIG. 6. IGF1 treatment activates PI3K-Akt pathway in the hippocampus. PI3K binds to AMPARs and is required to maintain AMPAR surface expression during long-term potentiation.
It is interesting to note that IGF-1 activates the mTOR/Akt pathway as this has been implicated in other neurodevelopmental disorders (Veenstra-Vanderweele et al., 2012).

[4] = test system: Shank3 heterozygous mice; assay: Motor performance and learning, latency to fall off a rotating rod; type: in vivo, mouse; settings: IGF-1 240 μg/kg/day for 2 weeks; male Shank3 Het vs vehicle
Description: FIG. 11. IGF-1 treatment reverses motor deficits in Shank3 heterozygous mice.
Phelan-McDermid syndrome frequently presents with hypotonia and at least transient motor deficits, and subtle motor deficits have been observed in Shank3-heterozygous mice (Bozdagi et al., 2010). To determine whether treatment with full-length IGF-1 may improve motor performance in Shank3-deficient mice, male heterozygous mice were treated with either vehicle or IGF-1 (240 μg/kg/day for 2 weeks).

[5] = test system: Shank3 KO mice; settings: (1-3)IGF-1 peptide, same protocol as heterozygotes, N=2
Description: Brief experimental procedures: Hippocampal slices (350 μm) are prepared from 1-3 month old Shank3 heterozygous, Shank3 knockout, and wildtype littermates, treated with (1-3) IGF-1 peptide, full-length IGF1, growth hormone, AMPAkine or saline or other appropriate control. Slices are perfused with Ringer's solution, bubbled with 95% O2/5% CO2, at 32° C., during extracellular recordings. Baseline of field excitatory postsynaptic potentials (fEPSPs) recorded from stratum radiatum in area CA1, evoked by stimulation of the Schaffer collateral-commissural afferents with bipolar tungsten electrodes placed into area CA3. Long-term potentiation (LTP) is induced either by a high-frequency stimulus (four trains of 100 Hz, 1 s stimulation separated by 5 min), or by theta-burst stimulation (TBS) (10 bursts of four pulses at 100 Hz separated by 200 ms), with a success rate >90% for control and genetically-modified animals with all stimulation protocols. To induce long-term depression (LTD), Schaffer collaterals were stimulated by a low frequency stimulus (900 pulses at 1 Hz for 15 min) or paired-pulse low frequency stimulus. LTD was induced with a success rate >90% for control animals. […]

| Substance | LTP (normalized field EPSP slope), lower dose ([1]; rhIGF-1 i.p. 120 μg/kg/day for 2 weeks, Shank3 Het) | LTP (normalized field EPSP slope), higher dose ([1]; Shank3 Het) | LTP (normalized field EPSP slope), higher dose ([1]; Shank3 Het, listed as rhIGF-1) | Mean slope of the I/O function (AMPA receptor component) ([2]; IGF-1 240 μg/kg/day i.p. 2 weeks, wildtype 0.625±0.08, untreated Het 0.31±0.045, p=0.004) | Deficits in AMPA receptor signaling (AMPA component of I/O function) ([2]; rhIGF-1 i.p. 240 μg/kg/day for 2 weeks, slices in APV) | phospho-Akt/Akt ratio ([3]; hippocampal lysates, Shank3 Het injected 2 weeks, n=10, vehicle 0.36±0.03 (n=8), 1-tailed p=0.040) | phosphorylation of Akt (pAkt1) ([3]; hippocampus, heterozygote mice, vs vehicle injected, n=3, P=0.0366) | Latency to fall off rotating rod / motor performance [4] | LTP (normalized field EPSP slope) ([1]; (1-3)IGF-1 i.p. 0.01 mg/g (10 μg/g/day) daily for 2 weeks from P13-15, Shank3 Het vs vehicle) | LTP (fEPSP versus time) [5] |
| --- | --- | --- | --- | --- | --- | --- | --- | --- | --- | --- |
| IGF-1: recombinant human IGF-1, a 7.6 kDa protein, SEQ ID NO:3 | not associated with significant reversal | effective in rescuing defective LTP | reversed by the higher | 0.618±0.075 | reversed | 0.55±0.04 | increase | significantly longer latencies; also recorded: Significant enhancement of motor performance |  |  |
| glycine-proline-glutamic acid [(1-3)IGF-1] |  |  |  |  |  |  |  |  | reversed; also recorded: restored normal hippocampal LTP | reversed the impairment in LTP |
